Measured values: patent publication US20120046284A1, “Salts and hydrates of 4-[(3-chloro-4-fluoro-phenyl)amino]-6-(cis-4--cyclohexan-1-yloxy)-7-methoxy-quinazoline, their use as a medicament and the preparation thereof” (BOEHRINGER INGELHEIM INTERNATIONAL GMBH, priority 2010, published 2012)
≈ marks a conversion by molar mass, not a printed value. Structures can show the parent of a compound that is named as a salt.

How the values were obtained:
[1] = Solubility tests in water (2 hours shaking at ambient temperature, UV spectroscopy; pH of saturated solution); assay type: physicochemical; details: for solubility: in water, 2 hours, ambient temperature; for intrinsic pH of the saturated solution: saturated aqueous solution
Description: The solubility of the different crystalline forms of formula (I) or (6) in water is determined as follows: approx. 5 mg of the corresponding form are added to 5 ml of water. The mixture is shaken for 2 hours at ambient temperature in an overhead shaker made by the Heidolph company. Then the undissolved fractions are filtered off through a 0.45 μm PTFE filter. The dissolved fraction in the filtrate is determined by UV spectroscopy. In addition, the pH of the saturated aqueous solution is also measured with a standard pH electrode.

[2] = target: T1, human EGF-R (Homo sapiens, UniProt P00533); assay: Inhibition of the EGFR-dependent proliferation (EGF-stimulated murine haematopoietic cell line expressing human EGF-R); assay type: cell-based; details: 20 ng/ml human EGF, 48 hours at 37° C.
T1 construct: expressed in transfected cells
T1 sequence (P00533 25-1210): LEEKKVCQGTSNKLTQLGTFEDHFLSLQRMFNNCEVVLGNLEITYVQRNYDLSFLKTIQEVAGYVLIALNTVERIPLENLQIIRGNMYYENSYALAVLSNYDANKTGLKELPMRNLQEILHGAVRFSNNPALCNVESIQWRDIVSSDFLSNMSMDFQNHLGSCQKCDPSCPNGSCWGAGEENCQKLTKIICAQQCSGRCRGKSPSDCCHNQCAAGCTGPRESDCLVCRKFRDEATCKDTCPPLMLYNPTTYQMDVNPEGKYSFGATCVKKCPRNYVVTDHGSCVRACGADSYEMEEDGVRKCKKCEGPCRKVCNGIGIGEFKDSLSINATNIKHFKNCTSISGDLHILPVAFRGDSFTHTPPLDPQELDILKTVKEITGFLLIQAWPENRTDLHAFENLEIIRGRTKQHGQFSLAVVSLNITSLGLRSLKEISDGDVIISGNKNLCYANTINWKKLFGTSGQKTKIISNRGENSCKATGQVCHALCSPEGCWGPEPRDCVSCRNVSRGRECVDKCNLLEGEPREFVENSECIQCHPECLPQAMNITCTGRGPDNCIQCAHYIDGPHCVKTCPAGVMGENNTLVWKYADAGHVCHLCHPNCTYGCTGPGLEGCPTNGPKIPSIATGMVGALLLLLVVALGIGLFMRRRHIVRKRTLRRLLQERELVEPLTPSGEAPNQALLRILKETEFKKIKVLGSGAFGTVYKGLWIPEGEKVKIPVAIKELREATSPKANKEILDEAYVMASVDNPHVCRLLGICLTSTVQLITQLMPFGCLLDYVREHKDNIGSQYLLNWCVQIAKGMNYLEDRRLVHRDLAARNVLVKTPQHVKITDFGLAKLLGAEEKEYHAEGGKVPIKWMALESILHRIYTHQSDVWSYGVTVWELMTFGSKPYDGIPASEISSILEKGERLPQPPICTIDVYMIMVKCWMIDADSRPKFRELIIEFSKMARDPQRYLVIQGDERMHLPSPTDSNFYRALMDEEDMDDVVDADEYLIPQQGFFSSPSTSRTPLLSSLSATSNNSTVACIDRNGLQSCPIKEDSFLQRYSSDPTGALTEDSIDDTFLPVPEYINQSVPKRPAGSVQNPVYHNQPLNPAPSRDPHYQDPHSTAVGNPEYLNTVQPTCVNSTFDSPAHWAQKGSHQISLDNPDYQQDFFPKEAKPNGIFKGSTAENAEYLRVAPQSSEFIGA
Description: A murine haematopoietic cell line is genetically modified so as to express functional human EGF-R. The proliferation of this cell line can therefore be stimulated by EGF.
The test is carried out as follows:
The cells are cultivated in RPMI/1640 medium. The proliferation is stimulated with 20 ng/ml of human EGF (Promega). To investigate the inhibitory activity of the compounds according to the invention these compounds are dissolved in 100% dimethylsulphoxide (DMSO) and added to the cultures in various dilutions, the maximum DMSO concentration being 1%. The cultures are incubated for 48 hours at 37° C.
In order to determine the inhibitory activity of the compound (I.1) according to the invention the relative cell number is measured in O.D. units using the Cell Titer 96TM AQueous Non-Radioactive Cell Proliferation Assay (Promega). The relative cell number is calculated as a percentage of the control and the concentration of active substance which inhibits the proliferation of the cells by 50% (IC50) is derived therefrom.

[3] = Water absorption tests (DVS, hygroscopic characteristics); assay type: physicochemical
Description: A DVS-1 made by Surface Measurement Systems (=SMS) is used to investigate the hygroscopic characteristics: the following humidity profiles are used: from 10-90% r.h. in steps of 10%, absorption and desorption profiles are recorded, typical weights: 10-20 mg The corresponding diagrams (kinetic and isothermic plot) of the different forms are shown in FIGS. 1c+d-5c+d.

[4] = listed as monohydrate free base (I.2)
[5] = listed as hemihydrochloride sesquihydrate (I.1)
[6] = listed as anhydrous free base (6)

COc1cc2ncnc(Nc3ccc(F)c(Cl)c3)c2cc1O[C@H]1CC[C@@H](N(C)C(=O)N2CCOCC2)CC1 [low-melting form monohydrochloride (I.3), 4-[(3-chloro-4-fluoro-phenyl)amino]-6-(cis-4-{N-[(morph-1-olin-4-yl)carbonyl]-N-methyl-amino}-cyclohexan-1-yloxy)-7-methoxy-quinazoline]
solubility [1]: 47 µg/mL | intrinsic pH of the saturated solution [1]: 4.0

COc1cc2ncnc(Nc3ccc(F)c(Cl)c3)c2cc1O[C@H]1CC[C@@H](N(C)C(=O)N2CCOCC2)CC1 [high-melting form monohydrochloride (I.3)] [4-[(3-chloro-4-fluoro-phenyl)amino]-6-(cis-4-{N-[(morph-1-olin-4-yl)carbonyl]-N-methyl-amino}-cyclohexan-1-yloxy)-7-methoxy-quinazoline]
solubility [1]: 41 µg/mL | intrinsic pH of the saturated solution [1]: 3.3

COc1cc2ncnc(Nc3ccc(F)c(Cl)c3)c2cc1O[C@H]1CC[C@@H](N(C)C(=O)N2CCOCC2)CC1 [Compound (I.2), 4-[(3-chloro-4-fluoro-phenyl)amino]-6-(cis-4-{N-[(morph-1-olin-4-yl)carbonyl]-N-methyl-amino}-cyclohexan-1-yloxy)-7-methoxy-quinazoline]
solubility [1, 4]: <1 µg/mL | intrinsic pH of the saturated solution [1, 4]: 5.9

COc1cc2ncnc(Nc3ccc(F)c(Cl)c3)c2cc1O[C@H]1CC[C@@H](N(C)C(=O)N2CCOCC2)CC1 [Compound (I.1), 4-[(3-chloro-4-fluoro-phenyl)amino]-6-(cis-4-{N-[(morph-1-olin-4-yl)carbonyl]-N-methyl-amino}-cyclohexan-1-yloxy)-7-methoxy-quinazoline]
IC50 [2]: 10 nM | solubility [1, 5]: 170 µg/mL (≈ 312 µM) | intrinsic pH of the saturated solution [1, 5]: 6.5 | hygroscopic characteristics: change in particle size or phase depending on the relative humidity [3]: no change in particle size or phase change takes place

COc1cc2ncnc(Nc3ccc(F)c(Cl)c3)c2cc1O[C@H]1CC[C@@H](N(C)C(=O)N2CCOCC2)CC1 [(6), 4-[(3-chloro-4-fluoro-phenyl)amino]-6-(cis-4-{N-[(morph-1-olin-4-yl)carbonyl]-N-methyl-amino}-cyclohexan-1-yloxy)-7-methoxy-quinazoline]
solubility [1, 6]: <1 µg/mL | intrinsic pH of the saturated solution [1, 6]: 5.9
